# Molecular target: recombinant human AMPK complex 1 (containing α1β1γ1) (Homo sapiens, UniProt Q13131+Q9Y478)
# Experiment: […] (in vitro AMPK activation assay)
# Type: biochemical
# Settings: recombinant human AMPK complex 1 (α1β1γ1); basal activity subtracted; read-out: % Maximum AMP Activation of human AMPK Complex 1
# Chain of recombinant human AMPK complex 1 (containing α1β1γ1) (Q13131 whole entry): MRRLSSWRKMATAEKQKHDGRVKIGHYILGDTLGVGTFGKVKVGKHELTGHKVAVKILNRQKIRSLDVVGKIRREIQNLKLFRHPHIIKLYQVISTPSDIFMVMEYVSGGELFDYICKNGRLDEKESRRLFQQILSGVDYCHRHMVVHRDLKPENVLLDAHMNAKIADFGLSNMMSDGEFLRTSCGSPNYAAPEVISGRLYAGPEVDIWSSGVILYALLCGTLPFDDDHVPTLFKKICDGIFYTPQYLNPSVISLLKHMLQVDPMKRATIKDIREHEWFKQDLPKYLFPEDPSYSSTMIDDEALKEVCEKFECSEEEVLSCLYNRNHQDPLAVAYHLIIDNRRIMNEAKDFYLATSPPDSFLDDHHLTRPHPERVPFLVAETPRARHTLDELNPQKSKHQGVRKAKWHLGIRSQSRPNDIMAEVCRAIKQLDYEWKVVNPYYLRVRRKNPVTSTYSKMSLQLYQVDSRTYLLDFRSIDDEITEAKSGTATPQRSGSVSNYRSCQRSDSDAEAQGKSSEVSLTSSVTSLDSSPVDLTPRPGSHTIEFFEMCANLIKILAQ
# Chain of recombinant human AMPK complex 1 (containing α1β1γ1) (Q9Y478 whole entry): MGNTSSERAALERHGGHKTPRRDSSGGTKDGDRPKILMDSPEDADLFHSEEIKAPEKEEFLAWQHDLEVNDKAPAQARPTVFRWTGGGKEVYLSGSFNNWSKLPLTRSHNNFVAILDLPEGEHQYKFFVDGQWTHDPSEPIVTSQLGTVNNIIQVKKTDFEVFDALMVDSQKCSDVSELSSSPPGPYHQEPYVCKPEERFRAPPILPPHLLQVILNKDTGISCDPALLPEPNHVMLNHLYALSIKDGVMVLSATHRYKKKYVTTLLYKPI
# Chain of recombinant human AMPK complex 1 (containing α1β1γ1) (P54619 whole entry partner): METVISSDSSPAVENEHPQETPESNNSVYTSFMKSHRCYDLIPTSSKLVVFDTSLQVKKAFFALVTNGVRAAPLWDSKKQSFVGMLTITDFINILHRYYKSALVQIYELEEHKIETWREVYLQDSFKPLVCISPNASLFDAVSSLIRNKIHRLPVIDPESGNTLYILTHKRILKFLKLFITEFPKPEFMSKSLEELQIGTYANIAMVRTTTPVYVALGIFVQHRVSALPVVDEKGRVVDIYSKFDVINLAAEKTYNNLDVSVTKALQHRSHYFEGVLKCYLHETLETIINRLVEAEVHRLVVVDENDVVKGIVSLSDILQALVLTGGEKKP
row,Compound,Emax
1,"Cc1ccc(Oc2nc3cc(-c4ccc(-c5ccc(F)cc5)cc4)c(Cl)cc3[nH]2)cc1C(=O)O [Example 105, 5-[6-Chloro-5-(4′-fluoro-biphenyl-4-yl)-1H-benzoimidazol-2-yloxy]-2-methyl-benzoic acid]",> 80%
2,"COc1ccccc1C#Cc1cc2nc(Oc3ccc(C)c(C(=O)O)c3)[nH]c2cc1Cl [Example 106, 5-[6-Chloro-5-(2-methoxy-phenylethynyl)-1H-benzoimidazol-2-yloxy]-2-methyl-benzoic acid]",> 80%
3,"COC(=O)c1cc(Oc2nc3cc(C#Cc4ccccc4OC)c(Cl)cc3[nH]2)ccc1C [Example 107, 5-[6-Chloro-5-(2-methoxy-phenylethynyl)-1H-benzoimidazol-2-yloxy]-2-methyl-ester]",> 80%
4,"COc1cccc(C#Cc2cc3nc(Oc4ccc(C)c(C(=O)O)c4)[nH]c3cc2Cl)c1 [Example 108, 5-[6-Chloro-5-(3-methoxy-phenylethynyl)-1H-benzoimidazol-2-yloxy]-2-methyl-benzoic acid]",> 80%
5,"COC(=O)c1cc(Oc2nc3cc(C#Cc4cccc(OC)c4)c(Cl)cc3[nH]2)ccc1C [Example 109, 5-[6-Chloro-5-(3-methoxy-phenylethynyl)-1H-benzoimidazol-2-yloxy]-2-methyl-benzoic acid methyl ester]",> 80%
6,"Cc1ccc(Oc2nc3cc(C#Cc4cccc(Cl)c4)c(Cl)cc3[nH]2)cc1C(=O)O [Example 110, 5-[6-Chloro-5-(3-chloro-phenylethynyl)-1H-benzoimidazol-2-yloxy]-2-methyl-benzoic acid]",> 80%
7,"Cc1ccc(Oc2nc3cc(C#Cc4cccc(F)c4)c(Cl)cc3[nH]2)cc1C(=O)O [Example 111, 5-[6-Chloro-5-(3-fluoro-phenylethynyl)-1H-benzoimidazol-2-yloxy]-2-methyl-benzoic acid]",> 80%
8,"Cc1ccc(Oc2nc3cc(C#Cc4ccc(Cl)cc4)c(Cl)cc3[nH]2)cc1C(=O)O [Example 112, 5-[6-Chloro-5-(4-chloro-phenylethynyl)-1H-benzoimidazol-2-yloxy]-2-methyl-benzoic acid]",> 80%
9,"Cc1ccc(Oc2nc3cc(C#Cc4ccc(F)cc4)c(Cl)cc3[nH]2)cc1C(=O)O [Example 113, 5-[6-Chloro-5-(4-fluoro-phenylethynyl)-1H-benzoimidazol-2-yloxy]-2-methyl-benzoic acid]",> 80%
10,"COC(=O)c1cc(Oc2nc3cc(C#Cc4ccc(F)cc4)c(Cl)cc3[nH]2)ccc1C [Example 114, 5-[6-Chloro-5-(4-fluoro-phenylethynyl)-1H-benzoimidazol-2-yloxy]-2-methyl-benzoic acid methyl ester]",> 80%
11,"Cc1ccc(Oc2nc3cc(C#Cc4ccccc4Cl)c(Cl)cc3[nH]2)cc1C(=O)O [Example 115, 5-[6-Chloro-5-(2-chloro-phenylethynyl)-1H-benzoimidazol-2-yloxy]-2-methyl-benzoic acid]",> 80%
12,"Cc1ccc(Oc2nc3cc(C#Cc4ccc(O)cc4)c(Cl)cc3[nH]2)cc1C(=O)O [Example 116, 5-[6-Chloro-5-(4-hydroxy-phenylethynyl)-1H-benzoimidazol-2-yloxy]-2-methyl-benzoic acid]",> 80%
13,"COC(=O)c1cc(Oc2nc3cc(C#Cc4ccc(OC(C)=O)cc4)c(Cl)cc3[nH]2)ccc1C [Example 117, 5-[5-(4-Acetoxy-phenylethynyl)-6-chloro-1H-benzoimidazol-2-yloxy]-2-methyl-benzoic acid methyl ester]",> 80%
14,"COC(=O)c1cc(Oc2nc3cc(C#Cc4ccccc4F)c(Cl)cc3[nH]2)ccc1C [Example 119, 5-[6-Chloro-5-(2-fluoro-phenylethynyl)-1H-benzoimidazol-2-yloxy]-2-methyl-benzoic acid methyl ester]",> 80%
15,"Cc1ccc(Oc2nc3cc(C#Cc4ccc(-c5cnco5)cc4)c(Cl)cc3[nH]2)cc1C(=O)O [Example 120, 5-[6-Chloro-5-(4-oxazol-5-yl-phenylethynyl)-1H-benzoimidazol-2-yloxy]-2-methyl-benzoic acid]",> 80%
16,"COc1ccc(C#Cc2cc3nc(Oc4ccc(C)c(C(=O)O)c4)[nH]c3cc2Cl)cc1 [Example 121, 5-[6-Chloro-5-(4-methoxy-phenylethynyl)-1H-benzoimidazol-2-yloxy]-2-methyl-benzoic acid]",> 80%
17,"COC(=O)c1cc(Oc2nc3cc(C#Cc4ccc(OC)cc4)c(Cl)cc3[nH]2)ccc1C [Example 122, 5-[6-Chloro-5-(4-methoxy-phenylethynyl)-1H-benzoimidazol-2-yloxy]-2-methyl-benzoic acid methyl ester]",> 80%
18,"COC(=O)c1cc(Oc2nc3cc(C#Cc4ccc(-c5cnco5)cc4)c(Cl)cc3[nH]2)ccc1C [Example 123, 5-[6-Chloro-5-(4-oxazol-5-yl-phenylethynyl)-1H-benzoimidazol-2-yloxy]-2-methyl-benzoic acid methyl ester]",> 80%
19,"Cc1ccc(Oc2nc3cc(C#Cc4cccc(O)c4)c(Cl)cc3[nH]2)cc1C(=O)O [Example 124, 5-[6-Chloro-5-(3-hydroxy-phenylethynyl)-1H-benzoimidazol-2-yloxy]-2-methyl-benzoic acid]",> 80%

row,Compound,Emax
1,"COC(=O)c1cc(Oc2nc3cc(C#Cc4cccc(O)c4)c(Cl)cc3[nH]2)ccc1C [Example 125, 5-[6-Chloro-5-(3-hydroxy-phenylethynyl)-1H-benzoimidazol-2-yloxy]-2-methyl-benzoic acid methyl ester]",> 80%
2,"Cc1ccc(Oc2nc3cc(C#Cc4cccc(C(=O)O)c4)c(Cl)cc3[nH]2)cc1C(=O)O [Example 126, 5-[5-(3-Carboxy-phenylethynyl)-6-chloro-1H-benzoimidazol-2-yloxy]-2-methyl-benzoic acid]",> 80%
3,"COc1cc(C(=O)O)ccc1C#Cc1cc2nc(Oc3ccc(C)c(C(=O)O)c3)[nH]c2cc1Cl [Example 127, 5-({5-[(4-carboxy-2-methoxyphenyl)ethynyl]-6-chloro-1H benzimidazol-2-yl}oxy)-2-methylbenzoic acid]",> 80%
4,"Cc1ccc(Oc2nc3cc(C#Cc4ccc(=O)[nH]c4)c(Cl)cc3[nH]2)cc1C(=O)O [Example 128, 5-[6-Chloro-5-(6-oxo-1,6-dihydro-pyridin-3-ylethynyl)-1H-benzoimidazol-2-yloxy]-2-methyl-benzoic acid]",> 80%
5,"COc1ccc(C#Cc2cc3nc(Oc4ccc(C)c(C(=O)O)c4)[nH]c3cc2Cl)cn1 [Example 129, 5-[6-Chloro-5-(6-methoxy-pyridin-3-ylethynyl)-1H-benzoimidazol-2-yloxy]-2-methyl-benzoic acid]",> 80%
6,"Cc1ccc(Oc2nc3cc(C#CC4CCCC4O)c(Cl)cc3[nH]2)cc1C(=O)O (stereo not shown) [Example 130, 5-[6-Chloro-5-(2-hydroxy-cyclopentylethynyl)-1H-benzoimidazol-2-yloxy]-2-methyl-benzoic acid]",> 80%
7,"Cc1ccc(Oc2nc3cc(C#Cc4cccnc4)c(Cl)cc3[nH]2)cc1C(=O)O [Example 131, 5-(6-Chloro-5-pyridin-3-ylethynyl-1H-benzoimidazol-2-yloxy)-2-methyl-benzoic acid]",> 80%
8,"Cc1ccc(C#Cc2cc3nc(Oc4ccc(C)c(C(=O)O)c4)[nH]c3cc2Cl)cn1 [Example 132, 5-[6-Chloro-5-(6-methyl-pyridin-3-ylethynyl)-1H-benzoimidazol-2-yloxy]-2-methyl-benzoic acid]",> 80%
9,"COC(=O)c1cc(Oc2nc3cc(C#Cc4cccnc4)c(Cl)cc3[nH]2)ccc1C [Example 133, 5-(6-Chloro-5-pyridin-3-ylethynyl-1H-benzoimidazol-2-yloxy)-2-methyl-benzoic acid methyl ester]",> 80%
10,"Cc1ccc(Oc2nc3cc(C#Cc4cncn4C)c(Cl)cc3[nH]2)cc1C(=O)O [Example 134, 5-[6-Chloro-5-(3-methyl-3H-imidazol-4-ylethynyl)-1H-benzoimidazol-2-yloxy]-2-methyl-benzoic acid]",> 80%
11,"Cc1ccc(Oc2nc3cc(C#CC4(O)CCCC4)c(Cl)cc3[nH]2)cc1C(=O)O [Example 135, 5[6-Chloro-5-(1-hydroxy-cyclopentylethynyl)-1H-benzoimidazol-2-yloxy]-2-methyl-benzoic acid]",> 80%
12,"COC(=O)c1cc(Oc2nc3cc(C#Cc4cncn4C)c(Cl)cc3[nH]2)ccc1C [Example 136, 5-[6-Chloro-5-(3-methyl-3H-imidazol-4-ylethynyl)-1H-benzoimidazol-2-yloxy]-2-methyl-benzoic acid methyl ester]",> 80%
13,"COC(=O)c1cc(Oc2nc3cc(C#CC4(O)CCCC4)c(Cl)cc3[nH]2)ccc1C [Example 137, 5-[6-Chloro-5-(1-hydroxy-cyclopentylethynyl)-1H-benzoimidazol-2-yloxy]-2-methyl-benzoic acid methyl ester]",> 80%
14,"Cc1ccc(Oc2nc3cc(C#CC4CCNC4)c(Cl)cc3[nH]2)cc1C(=O)O (stereo not shown) [Example 138, 5-(6-Chloro-5-pyrrolidin-3-ylethynyl-1H-benzoimidazol-2-yloxy)-2-methyl-benzoic acid]",> 80%
15,"O=C(O)c1cccc(Nc2nc3cc(C#Cc4ccccc4)c(Cl)cc3[nH]2)c1 [Example 139, 3-(6-Chloro-5-phenylethynyl-1H-benzoimidazol-2-ylamino)-benzoic acid]",> 80%
16,"Cc1ccc(Oc2nc3cc(-c4ccc5[nH]cnc5c4)c(Cl)cc3[nH]2)cc1C(=O)O [Example 140, 2-(3-Carboxy-4-methyl-phenoxy)-6-chloro-1H,1′H-[5,5′]bibenzoimidazolyl-3-ium; chloride]",> 80%
17,"Cc1ccc(Oc2nc3cc(-c4ccc5onc(C)c5c4)c(Cl)cc3[nH]2)cc1C(=O)O [Example 141, 5-[6-Chloro-5-(3-methyl-benzo[d]isoxazol-5-yl)-1H-benzoimidazol-2-yloxy]-2-methyl-benzoic acid]",> 80%
18,"Cc1ccc(Oc2nc3cc(-c4ccc5c(cnn5C)c4)c(Cl)cc3[nH]2)cc1C(=O)O [Example 142, 5-[6-Chloro-5-(1-methyl-1H-indazol-5-yl)-1H-benzoimidazol-2-yloxy]-2-methyl-benzoic acid]",> 80%

# Reference: patent publication US8394969B2, “Cyclic benzimidazole derivatives useful as anti-diabetic agents” (Merck Sharp & Dohme Corp., priority 2008, dated 2013)
